Assay [1] addresses T1, PglB (Campylobacter jejuni subsp. jejuni serotype O:2, UniProt Q0P9C8). The conditions noted are these: glycolipid 1-200 μM, peptide 20 μM, PglB 0.44 μM, reaction time <2 h, duplicate.
Description: Reaction mixtures were prepared as described above in Example 6 and incubated in a thermo cycler for 2 h at 30° C. Glycosylation was terminated by flash increasing of temperature to 95° C. for 2 minutes. Peptide mixtures were cleaned up and subjected to UPLC. The separation of the glycosylated peptide from unglycosylated was achieved by normal phase using Waters Acquity UPLC column (BEH glycan, 2.1×150 mm, 1.7-μm particles). Concentration of un- and glycosylated peptides was measured by calculating the area of corresponding peaks (FIG. 3.)
For assay [2], the target named is T1, PglB. Briefly: Synthetic optimization of peptide glycosylation by PglB, HPLC/LC-MS conversion. The class given is biochemical. Set-up: 10His (C); made in house; host or cells: E. coli Rosetta. As to conditions: peptide:glycolipid 1:5, RT overnight, HPLC peak areas, FIG. 2a. On the procedure:
To a 10 μL of purified PglB (40 μM) in 1.5 mL eppendorf tube was added 34 μL of buffer (HEPES 10 mM, pH 7.5 containing 1 mM MnCl2 and 1% Triton-X 100). […] For the gel analysis, 8 μL of reaction mixture was treated with 2 μL of 4X SDS sample buffer and heated to 90° C. for 5 minutes. Analytical HPLC was carried out on a Waters 2795 separation module HPLC instrument equipped with a Jasco FP-920 Intelligent Fluorescent Detector (Excitation at 542 nm, Emission at 572 nm). Phenomenex Jupiter 4μ proteo 90A (250×4.6 mm) column was used with a gradient of 0-20%, 20-45%, 45-95% Acetonitrile with 0.1% formic acid at a flow rate of 1 ml/min. Product eluted with a retention time of 6.6 min and identification was performed using the Micromass LCT (TOF ESI). Conversion of the reaction was quantified by integration of the respective peak areas of product and remaining starting peptide.

In assay [3] the target is T1, PglB. The assay is described as follows: In vitro glycosylation of AcrA protein by PglB, ES-MS analysis. Set-up: 10His (C); made in house; host or cells: E. coli Rosetta. The conditions noted are these: AcrA-His6 129 pmol, glycolipid 25.6 nmol, 25° C., 36 hours. Format: biochemical. The source says:
Using the process described in Example 6a the two consensus Asn sites in the C. jejuni AcrA protein (overexpressed and purified from E. coli using pET24 (AcrA-Cys) according to the literature protocol [Kowarik, M. et. al., Science, 2006, 314, 1148-1150; Lazar, M. N. et. al., Glycobiology, 2005, 15 (4), 361-367]) were glycosylated using glycolipid substrates (Examples 2 and 4).

T1 sequence (Q0P9C8 whole entry): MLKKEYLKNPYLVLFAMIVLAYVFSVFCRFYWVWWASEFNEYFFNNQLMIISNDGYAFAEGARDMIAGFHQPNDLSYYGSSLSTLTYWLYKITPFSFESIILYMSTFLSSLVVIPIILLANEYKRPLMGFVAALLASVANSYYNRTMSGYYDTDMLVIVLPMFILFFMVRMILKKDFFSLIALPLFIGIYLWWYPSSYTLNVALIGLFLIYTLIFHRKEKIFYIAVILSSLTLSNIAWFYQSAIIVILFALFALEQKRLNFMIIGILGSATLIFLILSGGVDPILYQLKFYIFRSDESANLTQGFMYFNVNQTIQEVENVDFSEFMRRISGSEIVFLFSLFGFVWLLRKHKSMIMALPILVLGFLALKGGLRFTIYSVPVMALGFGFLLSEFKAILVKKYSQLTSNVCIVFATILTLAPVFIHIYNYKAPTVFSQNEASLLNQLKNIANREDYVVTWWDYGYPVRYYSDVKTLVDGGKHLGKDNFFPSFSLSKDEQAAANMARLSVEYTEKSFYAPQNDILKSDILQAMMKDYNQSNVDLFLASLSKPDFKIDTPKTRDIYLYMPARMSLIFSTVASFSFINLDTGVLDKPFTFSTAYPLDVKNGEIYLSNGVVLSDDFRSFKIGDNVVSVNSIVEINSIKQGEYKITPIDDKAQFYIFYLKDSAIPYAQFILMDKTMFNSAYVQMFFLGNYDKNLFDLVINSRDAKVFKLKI

The Km is the concentration of substrate that gives half-maximal velocity. The term kcat denotes the maximal rate divided by the concentration of active sites. Take `CC(=O)NC1C(O)[C@H](O)C(CO)O[C@@H]1OP(=O)(O)OP(=O)(O)OC/C=C(/C)CC/C=C(/C)CC/C=C(/C)CC/C=C(/C)CC/C=C(/C)CC/C=C(\C)CC/C=C(\C)CCC=C(C)C` (stereo partly drawn) [Comparative Example 5, P^1-2-Acetamido-2-deoxy-α-D-glucopyranosyl P^2-(2Z,6Z,10Z,14Z,18Z,22E,26E)-3,7,11,15,19,23,27,31-octamethyldotriaconta-2,6,10,14,18,22,26,30-octaen-1-yl diphosphate, reference compound]: in assay [1], the Km is 34 ± 10 µM and the kcat amounted to 0.000375 ± 3.5e-05 s⁻¹.
Turning to `CC(=O)NC1[C@@H](OP(=O)(O)OP(=O)(O)OC/C=C(/C)CC/C=C(/C)CC/C=C(/C)CCC=C(C)C)OC(CO)[C@@H](O)[C@@H]1O` (stereo partly drawn) [Example 1, P^1-2-Acetamido-2-deoxy-α-D-glucopyranosyl P^2-(2Z,6Z,10Z)-3,7,11,15-tetramethyl hexadeca-2,6,10,14-tetraen-1-yl diphosphate], in assay [1], the Km was found to be 77 ± 16 µM and the kcat stood at 0.00039 ± 3.5e-05 s⁻¹.
With `CC(=O)NC1[C@@H](OP(=O)([O-])OP(=O)([O-])OC/C=C(/C)CC/C=C(/C)CC/C=C(/C)CC/C=C(/C)CC/C=C(\C)CCC=C(C)C)OC(CO)[C@@H](O)[C@@H]1O.[Na+].[Na+]` (stereo partly drawn) [Example 4, P^1-2-Acetamido-2-deoxy-α-D-glucopyranosyl P^2-(2Z,6Z,10Z,14Z,18E)-3,7,11,15,19,23-hexamethyltetraicosa-2,6,10,14,18,22-hexaen-1-yl diphosphate], in assay [1], the Km turned out to be 55 ± 10 µM and the turnover number (kcat) stood at 0.000385 ± 2.67e-05 s⁻¹. Moreover, the “conversion, optimised glycosylation of TAMRA-peptide” value in assay [2] was 92%. The “conversion to the diglycosylated AcrA protein” value in assay [3] was more than 95%.

(Values after patent US20220025419A1, “N-GLYCOSYLATION OF PEPTIDES AND PROTEINS” (priority 2013, published 2022).)
